In the NIST ThermoML archive (doi:10.1016/j.jct.2008.01.010):
Values joined by “and” are separate entries in the source; they are usually repeats but may differ in a detail not shown here. Equal values may be shown once.

Conditions: Crystal; for mass density: 298.15 K, 101.33 kPa, Pycnometric method; for vapor or sublimation pressure: Calculated from knudsen effusion weight loss

Oc1nncc2ccccc12 [1(2H)-phthalazinone]
Conditions	mass density [kg/m3]	vapor or sublimation pressure
–	1290	–
348.12 K	–	0.0001427 kPa and 0.0001428 kPa and 0.0001398 kPa
350.14 K	–	0.0001731 kPa and 0.0001683 kPa and 0.0001668 kPa
352.15 K	–	0.0002116 kPa and 0.0002079 kPa
354.18 K	–	0.0002587 kPa and 0.0002577 kPa and 0.0002582 kPa
356.2 K	–	0.0003206 kPa and 0.0003187 kPa and 0.0003134 kPa
358.15 K	–	0.0003799 kPa and 0.0003853 kPa and 0.0003771 kPa
360.2 K	–	0.0004783 kPa and 0.0004761 kPa and 0.0004538 kPa
362.14 K	–	0.0005802 kPa and 0.0005665 kPa and 0.0005564 kPa
364.18 K	–	0.0006992 kPa and 0.0006815 kPa and 0.000676 kPa
366.14 K	–	0.0008356 kPa and 0.0008316 kPa and 0.000817 kPa
368.13 K	–	0.0009681 kPa and 0.001004 kPa and 0.0009903 kPa

O=c1[nH][nH]c(=O)c2ccccc12 [2,3-dihydro-1,4-phthalazinedione]
Conditions	mass density [kg/m3]	vapor or sublimation pressure
–	1390	–
428.18 K	–	0.0001501 kPa and 0.00015 kPa and 0.0001468 kPa
430.16 K	–	0.0001786 kPa and 0.0001816 kPa and 0.0001711 kPa
432.24 K	–	0.0002109 kPa and 0.000215 kPa and 0.0002114 kPa
434.18 K	–	0.0002433 kPa and 0.0002441 kPa
436.19 K	–	0.0002898 kPa and 0.000293 kPa and 0.0002878 kPa
438.26 K	–	0.0003477 kPa and 0.0003523 kPa and 0.0003443 kPa
440.19 K	–	0.0004064 kPa and 0.0003929 kPa
442.17 K	–	0.000473 kPa and 0.000486 kPa
444.26 K	–	0.0005785 kPa and 0.0005761 kPa
446.19 K	–	0.0006629 kPa and 0.0006749 kPa and 0.0006616 kPa
448.22 K	–	0.0007985 kPa and 0.0007997 kPa and 0.0007669 kPa
450.28 K	–	0.0009283 kPa and 0.0009382 kPa
